Counter-ions that a name gives are not always drawn.
Tests used:
Type in all cases: cell-based
ASPC1 cells = experiment: Soft agar colony formation assay, colonies stained with MTT; conditions: Homo sapiens; ASPC1, growth in soft agar, MTT absorbance at 570 nm, 3 independent experiments
Procedure: (§1) Metabolic activity was quantified using Cell Proliferation Kit I (Roche, Basel, Switzerland). Cells were seeded in 96-well cell culture plates, using 5000 cells per well for NCI-H358 cells. After treatment, 10 μl of MTT solution was added and incubated for 2 h in CO2 incubator. Then 100 μl of solubilization buffer was added to each well and incubated overnight in CO2 incubator. Cell viability, assessed by the amount of metabolized MTT, was quantified by measuring absorbance at 570 nm. MTT assay for the growth of different tumor cell lines with RAS mutations in soft agar Alexandrine dihydrochloride. NCI-H358, H358, H2122, ASPC-1, HCT-116, T24 and HT1080 cells were used for the soft agar colony formation assay. After the treatment with Alexandrine dihydrochloride, the colonies were stained with MTT and the value was quantified by measuring absorbance at 570 nm after solubilization. The results represent mean±SSEM from 3 independent experiments.

HCT-116 cells = experiment: as above; conditions: Homo sapiens; HCT-116, growth in soft agar, MTT absorbance at 570 nm, 3 independent experiments
Procedure: as §1

HT1080 cells = experiment: as above; conditions: Homo sapiens, HT-1080; HT1080, growth in soft agar, MTT absorbance at 570 nm, 3 independent experiments
Procedure: as §1

NCI-H2122 cells = experiment: as above; conditions: Homo sapiens; NCI-H2122, growth in soft agar, MTT absorbance at 570 nm, 3 independent experiments
Procedure: as §1

NCI-H358 cells = experiment: as above; conditions: Homo sapiens; NCI-H358, growth in soft agar, MTT absorbance at 570 nm, 3 independent experiments
Procedure: as §1

T24 cells = experiment: as above; conditions: Homo sapiens, T-24; T24, growth in soft agar, MTT absorbance at 570 nm, 3 independent experiments
Procedure: as §1

BaF3 KRAS G12C cells = experiment: MTT assay for cell viability in 96 well cell culture plate; conditions: Mus musculus, 48 h treatment
Procedure: (§2) FIGS. 4a) and 4b): MTT assay for cell viability in 96 well cell culture plate Cells were treated with Alexandrine dihydrochloride for 48 h and cell viability was evaluated by MTT assay. DMSO-treated cells were set as 1. The results shown are mean±SEM from 3 independent experiments.

[1] = test system: BaF3 KRAS G12C/Y96D cells; experiment: as above; conditions: Mus musculus, 48 h treatment
Procedure: as §2

SNF96.2 cells = experiment: RASOpathie-Model, MTT assay for cell viability in 96 well cell culture plate; conditions: SNF96.2, 48 h treatment
Procedure: as §2, with “FIG. 5: RASOpathie-Model of Alexandrine dihydrochloride;” for “FIGS. 4a) and 4b):”

HRAS G12V = HRAS G12V (Homo sapiens, UniProt P01112, G12V); experiment: NanoBit assay for RAS activation (LgBiT-RAS / SmBiT-CRAF RBD); conditions: HRAS G12V with CRAF RBD, 2 h with inhibitor in serum free DMEM
Procedure: (§3) FIGS. 1a) and 1b): NanoBit assay for RAS activation (KRAS G12V, NRAS G12V, HRAS G12V) N-terminal LgBiT and C-terminal SmBiT construct was purchased from Promega and K, N and HRAS G12V (full length) was cloned with Xho I and Bgl II to LgBit and CRAF Ras binding domain (1-149) was cloned with EcoRI and Bgl II to SmBit. For transfections, 1 μg or 2 μg of (12 well/6 well) plasmids were transfected into cells with 0.5 mM of PEI reagent in 100 μl or 200 μl PBS. One day after transfection, cells were harvested and seeded into 96 well white plates, half area (Greiner). After an additional day the medium was changed to serum free DMEM and the cells were incubated for 2 h with inhibitor. NanoGlo assay was performed according to the manufacturer's instructions. The luminescence was measured using Tecan infinite (Tecan).

KRAS G12V = KRAS G12V (Homo sapiens, UniProt P01116, G12V); experiment: as above; conditions: KRAS G12V with CRAF RBD, 2 h with inhibitor in serum free DMEM
Procedure: as §3

NRAS G12V = NRAS G12V (Homo sapiens, UniProt P01111, G12V); experiment: as above; conditions: NRAS G12V with CRAF RBD, 2 h with inhibitor in serum free DMEM
Procedure: as §3

[2] = test system: KRAS mutants (G12V, G12C, G12D, G12C/Y96D); experiment: NanoBiT assay for the RAS GTP-loading in HeLa cells (LgBit-KRAS mutants / SmBit-CRAF-RBD); conditions: 2 h in serum-free DMEM, normalized to DMSO
Procedure: FIG. 3: NanoBit assay for RAS activation (G12V, G12C, G12D, G12C/Y96D,)
NanoBiT assay for the RAS GTP-loading was performed in HeLa cells transfected with LgBit-KRAS mutants and SmBit-CRAF-RBD. Cells were treated with Alexandrine dihydrochloride for 2 h in serum-free DMEM. After incubation, the substrate for NanoLuc was added, and the luminescence was measured in a multiplate reader. Data were normalized to cells transfected with the indicated mutant and exposed to DMSO for 2 h. DMSO-treated cells were set as 1. The bars represent mean±SEM from 3 independent experiments.

HRAS G12V, sequence (P01112 1-186 G12V): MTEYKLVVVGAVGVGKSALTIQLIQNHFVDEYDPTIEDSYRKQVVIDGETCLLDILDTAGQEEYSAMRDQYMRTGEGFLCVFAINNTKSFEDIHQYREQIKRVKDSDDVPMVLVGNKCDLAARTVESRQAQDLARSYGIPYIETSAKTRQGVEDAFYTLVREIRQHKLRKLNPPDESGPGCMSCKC
NRAS G12V, sequence (P01111 1-186 G12V): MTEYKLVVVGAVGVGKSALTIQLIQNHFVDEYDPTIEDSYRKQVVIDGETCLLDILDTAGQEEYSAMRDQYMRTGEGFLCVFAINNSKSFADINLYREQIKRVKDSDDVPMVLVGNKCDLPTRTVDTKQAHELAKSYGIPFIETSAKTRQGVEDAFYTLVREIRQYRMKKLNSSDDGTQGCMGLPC
KRAS G12V, sequence (P01116 1-186 G12V): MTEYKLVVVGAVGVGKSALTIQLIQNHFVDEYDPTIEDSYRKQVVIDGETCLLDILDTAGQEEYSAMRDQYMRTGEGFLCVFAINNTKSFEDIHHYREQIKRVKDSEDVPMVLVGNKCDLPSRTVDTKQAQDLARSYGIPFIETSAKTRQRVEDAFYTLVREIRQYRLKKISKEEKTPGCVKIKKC

IC50 (ASPC1 cells): 1760 nM
IC50 (HCT-116 cells): 1910 nM
IC50 (HT1080 cells): 310 nM
IC50 (NCI-H2122 cells): 1610 nM
IC50 (NCI-H358 cells): 1280 nM
IC50 (T24 cells): 1700 nM
IC50 (BaF3 KRAS G12C cells): 1170 nM
IC50 [1]: 1540 nM
inhibition of H-RAS activation (NanoBit luminescence) (HRAS G12V): inhibits
inhibition of K-RAS activation (NanoBit luminescence) (KRAS G12V): inhibits
inhibition of N-RAS activation (NanoBit luminescence) (NRAS G12V): inhibits
SMILES: CCCCC(CC)CNC(=N)NC(=N)NCCCCCCNC(=N)NC(=N)NCC(CC)CCCC (stereo not shown) [Alexandrine dihydrochloride, 1,1′-Hexamethylenebis[5-(2-ethylhex-1-yl)]biguanide dihydrochloride]
IC50 (SNF96.2 cells): 350 nM
inhibition of RAS activation of KRAS mutants (NanoBiT luminescence) [2]: inhibits different RAS-isoforms
